Measurements published in article PMC6033010, “A Targeted LC‐MS Strategy for Low‐Abundant HLA Class‐I‐Presented Peptide Detection Identifies Novel Human Papillomavirus T‐Cell Epitopes” (Proteomics, 2018).
Where a SMILES comes first, the peptide text is derived from it.

These compounds were tested against T1, HLA‐A2 (Homo sapiens, UniProt P04439, D140Y/D185E/D98H/E176V/E277Q/G131W/G231S/I119V/I121R/I166T/I218V/L300P/L318F/N151K/N90K/P208A/P217A/Q86G/Q94H/R138H/R169H/T345S) (assay: In vitro competition-based cellular binding assay). Settings: acid-stripped BSM cells, β2M, 150 nM fluorescein-labeled reference peptide FLPSDC(Fl)FPSV, test peptide 0.78–100 μM, overnight 4 °C, flow cytometry; mean of at least three experimental replicates; read-out: Experimental binding affinity [IC50(μM)].
T1 construct: host or cells: BSM cells (HLA-A2+, HPV16-negative suspension cell line)
Description: In Vitro Competition Based Binding Assays: In vitro competition‐based binding assays were performed as described in ref. 30. In brief, BSM cells were treated with citric acid buffer to strip off naturally presented peptides. Cells were incubated overnight at 4 °C with β2M, a constant concentration (150 nM) of fluorescein‐labeled HLA‐A2‐binding reference peptide (FLPSDC(Fl)FPSV), and six different concentrations (0.78 –100 μM) of the respective investigated non‐labeled peptide, competing for HLA‐binding. Fluorescence was measured by flow cytometry and data processed with FlowJo 10 (TreeStar, Ashland, OR, USA). A logistic four‐parametric non‐linear regression calculation using SigmaPlot 13 (Systat‐Software, San José, CA, USA) was conducted to calculate binding affinity (IC50). […] The assay was performed with at least three biological replicates for binders and two for non‐binders.

Row | Compound | IC50
1 | CC[C@H](C)[C@H](NC(=O)[C@H](CC(=O)O)NC(=O)[C@H](Cc1c[nH]cn1)NC(=O)[C@@H](NC(=O)[C@@H](NC(=O)[C@@H](NC(=O)[C@H](CCC(N)=O)NC(=O)[C@H](CC(C)C)NC(=O)[C@@H](N)CCC(=O)O)[C@@H](C)O)[C@@H](C)O)[C@@H](C)CC)C(=O)O [E6_25–33] (H-ELQTTIHDI-OH) | 36.9 µM
2 | CC[C@H](C)[C@H](NC(=O)CNC(=O)[C@H](CC(C)C)NC(=O)[C@@H](NC(=O)CNC(=O)[C@H](CCSC)NC(=O)[C@H](CC(C)C)NC(=O)[C@H](CC(C)C)NC(=O)[C@@H](N)CC(=O)O)[C@@H](C)O)C(=O)N[C@H](C(=O)O)C(C)C [E7_81–90] (H-DLLMGTLGIV-OH) | 81 µM
3 | CSCC[C@H](NC(=O)[C@H](Cc1ccc(O)cc1)NC(=O)[C@@H](N)CCC(=O)O)C(=O)N[C@@H](CC(C)C)C(=O)N[C@@H](CC(=O)O)C(=O)N[C@@H](CC(C)C)C(=O)N[C@@H](CCC(N)=O)C(=O)N1CCC[C@H]1C(=O)N[C@@H](CCC(=O)O)C(=O)N[C@H](C(=O)O)[C@@H](C)O [E7_10–19] | 45.3 µM
4 | CC[C@H](C)[C@H](N)C(=O)N[C@@H](CCCNC(=N)N)C(=O)N[C@H](C(=O)N[C@@H](CC(C)C)C(=O)N[C@@H](CCC(=O)O)C(=O)N[C@@H](CC(=O)O)C(=O)N[C@@H](CC(C)C)C(=O)N[C@@H](CC(C)C)C(=O)N[C@@H](CCSC)C(=O)NCC(=O)N[C@H](C(=O)O)[C@@H](C)O)[C@@H](C)O [E7_76–86] (H-IRTLEDLLMGT-OH) | 31.9 µM
5 | CC[C@H](C)[C@H](NC(=O)CNC(=O)[C@H](CC(C)C)NC(=O)[C@@H](NC(=O)CNC(=O)[C@H](CCSC)NC(=O)[C@H](CC(C)C)NC(=O)[C@H](CC(C)C)NC(=O)[C@H](CC(=O)O)NC(=O)[C@@H](N)CCC(=O)O)[C@@H](C)O)C(=O)N[C@H](C(=O)O)C(C)C [E7_80–90] (H-EDLLMGTLGIV-OH) | 14.2 µM
6 | CSCC[C@H](NC(=O)[C@H](CC(C)C)NC(=O)[C@H](CC(C)C)NC(=O)[C@H](CC(=O)O)NC(=O)[C@H](CCC(=O)O)NC(=O)[C@H](CC(C)C)NC(=O)[C@@H](NC(=O)[C@@H](N)CCCNC(=N)N)[C@@H](C)O)C(=O)NCC(=O)N[C@H](C(=O)O)[C@@H](C)O [E7_77–86] | 66.9 µM
7 | CSCC[C@H](N)C(=O)N[C@@H](CC(C)C)C(=O)N[C@@H](CC(=O)O)C(=O)N[C@@H](CC(C)C)C(=O)N[C@@H](CCC(N)=O)C(=O)N1CCC[C@H]1C(=O)N[C@@H](CCC(=O)O)C(=O)N[C@H](C(=O)O)[C@@H](C)O [E7_12–19] (H-MLDLQPET-OH) | 53.7 µM
8 | CSCC[C@H](NC(=O)[C@H](Cc1ccc(O)cc1)NC(=O)[C@H](CCC(=O)O)NC(=O)[C@H](Cc1c[nH]cn1)NC(=O)[C@H](CC(C)C)NC(=O)[C@@H](N)[C@@H](C)O)C(=O)N[C@@H](CC(C)C)C(=O)N[C@@H](CC(=O)O)C(=O)N[C@@H](CC(C)C)C(=O)N[C@@H](CCC(N)=O)C(=O)N1CCC[C@H]1C(=O)O [E7_7–17] (H-TLHEYMLDLQP-OH) | 19.3 µM
9 | CSCC[C@H](NC(=O)[C@H](CC(C)C)NC(=O)[C@H](CC(C)C)NC(=O)[C@H](CC(=O)O)NC(=O)[C@H](CCC(=O)O)NC(=O)[C@H](CC(C)C)NC(=O)[C@@H](NC(=O)[C@@H](N)CCCNC(=N)N)[C@@H](C)O)C(=O)NCC(=O)N[C@H](C(=O)N[C@@H](CC(C)C)C(=O)O)[C@@H](C)O [E7_77–87] (H-RTLEDLLMGTL-OH) | 2.69 µM
10 | CSCC[C@H](NC(=O)[C@@H](N)Cc1ccc(O)cc1)C(=O)N[C@@H](CC(C)C)C(=O)N[C@@H](CC(=O)O)C(=O)N[C@@H](CC(C)C)C(=O)N[C@@H](CCC(N)=O)C(=O)N1CCC[C@H]1C(=O)N[C@@H](CCC(=O)O)C(=O)O [E7_11–18] (H-YMLDLQPE-OH) | 8.07 µM
11 | CSCC[C@H](NC(=O)[C@H](CC(C)C)NC(=O)[C@H](CC(C)C)NC(=O)[C@H](CC(=O)O)NC(=O)[C@H](CCC(=O)O)NC(=O)[C@H](CC(C)C)NC(=O)[C@@H](N)[C@@H](C)O)C(=O)NCC(=O)N[C@H](C(=O)O)[C@@H](C)O [E7_78–86] (H-TLEDLLMGT-OH) | 64.6 µM
12 | CSCC[C@H](NC(=O)[C@@H](N)Cc1ccc(O)cc1)C(=O)N[C@@H](CC(C)C)C(=O)N[C@@H](CC(=O)O)C(=O)N[C@@H](CC(C)C)C(=O)N[C@@H](CCC(N)=O)C(=O)N1CCC[C@H]1C(=O)N[C@@H](CCC(=O)O)C(=O)N[C@H](C(=O)N[C@H](C(=O)N[C@@H](CC(=O)O)C(=O)O)[C@@H](C)O)[C@@H](C)O [E7_11–21] | 2.37 µM
